Broadly, the melting point is the temperature, or range, at which the solid turns liquid.

Regarding `CC(=O)Oc1ccc(C(=O)Nc2ccc(Cl)c(NC(=O)c3ccc(C#N)cc3)c2)cc1` [Example 14, N-[5-(4-acetoxybenzamido)-2-chlorophenyl]-4-cyanobenzamide], the melting point was in the range of 195 to 196 °C.

As for `COc1ccc(C(=O)Nc2cc(NC(=O)c3cccc(N4CCOCC4)c3)ccc2Cl)cc1OC` [Example 4, N-[2-chloro-5-(3-morpholinobenzamido)phenyl]-3,4-dimethoxybenzamide], the melting point is 147.9 to 148.3 °C.

The values are drawn from patent US6465455B1, “Benzamide derivatives for the treatment of diseases mediated by cytokines” (AstraZeneca AB, priority 1998, dated 2002).
